Reference: PMC9090415, “Discovery of small molecule inhibitors of Plasmodium falciparum apicoplast DNA polymerase” (Journal of Enzyme Inhibition and Medicinal Chemistry, 2022)

Molecular target: P. falciparum apicoplast DNA polymerase (Pf-apPOL) (Plasmodium falciparum, UniProt Q8ILY1)
Assay: Fluorescence-based high-throughput DNA polymerase assay (molecular beacon), primary screen and dose-response
Type: biochemical
Conditions: for DNA Pol: unit not given, 90 min, 10 µM; for % inhibition Apo pol 10' 2.5 / % inhibition Apo pol 10' 5 / % inhibition Apo pol 10' 10 / % inhibition Apo pol 10' 20 / % inhibition Apo pol 10' 40 / % inhibition Apo pol 10' 80: read at 10'; for % inhibition Apol 90' 2.5 / % inhibition Apol 90' 5 / % inhibition Apol 90' 10 / % inhibition Apol 90' 20 / % inhibition Apol 90' 40 / % inhibition Apol 90' 80 / % inhibition ApPOL 90' 2.5 / % inhibition ApPOL 90' 5 / % inhibition ApPOL 90' 10 / % inhibition ApPOL 90' 20 / % inhibition ApPOL 90' 40 / % inhibition ApPOL 90' 80: read at 90'; for % inhibition apPOL 180' 2.5 / % inhibition apPOL 180' 5 / % inhibition apPOL 180' 10 / % inhibition apPOL 180' 20 / % inhibition apPOL 180' 40 / % inhibition apPOL 180' 80: read at 180'; for % inhibition Apo pol 5' 2.5 / % inhibition Apo pol 5' 5 / % inhibition Apo pol 5' 10 / % inhibition Apo pol 5' 20 / % inhibition Apo pol 5' 40 / % inhibition Apo pol 5' 80: read at 5'; for % inhibition Apol 40' 2.5 / % inhibition Apol 40' 5 / % inhibition Apol 40' 10 / % inhibition Apol 40' 20 / % inhibition Apol 40' 40 / % inhibition Apol 40' 80: read at 40'
Outline: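 Single-point screening used 10 µM compound with 20 nM polymerase, 20 nM hairpin substrate and 6 µM dNTPs for 90 min at 25 °C. Confirmatory titrations (2.5–80 µM) followed fluorescence at three times, and IC50 was derived from a fit including a cooperativity term n.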

[1] = 186 hits, DNA Pol (screen value)

Chain of P. falciparum apicoplast DNA polymerase (Pf-apPOL) (Q8ILY1 entry or part of it): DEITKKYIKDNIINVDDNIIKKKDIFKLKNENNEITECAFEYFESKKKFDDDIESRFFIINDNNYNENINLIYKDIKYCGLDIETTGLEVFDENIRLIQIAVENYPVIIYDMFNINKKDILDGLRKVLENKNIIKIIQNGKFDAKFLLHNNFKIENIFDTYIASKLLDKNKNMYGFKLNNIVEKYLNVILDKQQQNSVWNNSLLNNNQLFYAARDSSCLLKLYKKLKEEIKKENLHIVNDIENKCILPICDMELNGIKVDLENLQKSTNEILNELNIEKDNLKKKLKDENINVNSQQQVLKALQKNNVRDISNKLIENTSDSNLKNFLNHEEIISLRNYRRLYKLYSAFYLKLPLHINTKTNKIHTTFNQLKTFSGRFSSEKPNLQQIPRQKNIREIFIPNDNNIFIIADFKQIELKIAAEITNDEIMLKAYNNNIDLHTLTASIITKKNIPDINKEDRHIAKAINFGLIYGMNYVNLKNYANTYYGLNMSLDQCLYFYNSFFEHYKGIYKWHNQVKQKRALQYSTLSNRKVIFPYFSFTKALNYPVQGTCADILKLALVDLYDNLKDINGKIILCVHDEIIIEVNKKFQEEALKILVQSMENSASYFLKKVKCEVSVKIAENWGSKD

What does the source list for `Cc1ccc(N2CCC(NC(=O)Cc3cccs3)C2=O)cc1C` (stereo not shown) [Molecule 57, O=C(NC1CCN(C1=O)c1ccc(c(c1)C)C)Cc1cccs1]?
DNA Pol [1]: 30; DNA Pol ('DNA Pol' (screen value)): 30; % inhibition Apo pol 10' 2.5 (DRC-1, concentration 2.5): -4.081%; % inhibition Apo pol 10' 5 (DRC-1, concentration 5): 5.106%; % inhibition Apo pol 10' 10 (DRC-1, concentration 10): 22.9359%; % inhibition Apo pol 10' 20 (DRC-1, concentration 20): 41.5954%; % inhibition Apo pol 10' 40 (DRC-1, concentration 40): 44.443%; % inhibition Apo pol 10' 80 (DRC-1, concentration 80): 44.3208%; % inhibition Apol 90' 2.5 (DRC-1, concentration 2.5): -2.123%; % inhibition Apol 90' 5 (DRC-1, concentration 5): 4.8282%; % inhibition Apol 90' 10 (DRC-1, concentration 10): 19.3171%; % inhibition Apol 90' 20 (DRC-1, concentration 20): 42.7079%; % inhibition Apol 90' 40 (DRC-1, concentration 40): 53.5477%; % inhibition Apol 90' 80 (DRC-1, concentration 80): 61.4172%; % inhibition apPOL 180' 2.5 (DRC-1, concentration 2.5): -1.073%; % inhibition apPOL 180' 5 (DRC-1, concentration 5): 1.4295%; % inhibition apPOL 180' 10 (DRC-1, concentration 10): 11.4485%; % inhibition apPOL 180' 20 (DRC-1, concentration 20): 30.1368%; % inhibition apPOL 180' 40 (DRC-1, concentration 40): 47.6529%; % inhibition apPOL 180' 80 (DRC-1, concentration 80): 62.3607%; % inhibition Apo pol 5' (DRC-2, concentration 10): 24%; % inhibition Apo pol 5' (DRC-2, concentration 20): 24%; % inhibition ApPOL 90' (DRC-2, 90', concentration 20): 47%; % inhibition ApPOL 90' (DRC-2, 90', concentration 40): 47%; % inhibition Apo pol 5' 2.5 (DRC-2, concentration 2.5): -1.72%; % inhibition Apo pol 5' 5 (DRC-2, concentration 5): 2.54%; % inhibition Apo pol 5' 10 (DRC-2, concentration 10): 24%; % inhibition Apo pol 5' 20 (DRC-2, concentration 20): 24%; % inhibition Apo pol 5' 40 (DRC-2, concentration 40): 6.44%; % inhibition Apo pol 5' 80 (DRC-2, concentration 80): -4.26%; % inhibition Apol 40' 2.5 (DRC-2, concentration 2.5): -1.82%; % inhibition Apol 40' 5 (DRC-2, concentration 5): 5.58%; % inhibition Apol 40' 10 (DRC-2, concentration 10): 32%; % inhibition Apol 40' 20 (DRC-2, concentration 20): 44%; % inhibition Apol 40' 40 (DRC-2, concentration 40): 39%; % inhibition Apol 40' 80 (DRC-2, concentration 80): 37%; % inhibition ApPOL 90' 2.5 (DRC-2, concentration 2.5): -2.11%; % inhibition ApPOL 90' 5 (DRC-2, concentration 5): 5%; % inhibition ApPOL 90' 10 (DRC-2, concentration 10): 30%; % inhibition ApPOL 90' 20 (DRC-2, concentration 20): 47%; % inhibition ApPOL 90' 40 (DRC-2, concentration 40): 47%; % inhibition ApPOL 90' 80 (DRC-2, concentration 80): 48%; % inhibition apPOL 180' 2.5 (DRC-2, concentration 2.5): -1.11%; % inhibition apPOL 180' 5 (DRC-2, concentration 5): 3.34%; % inhibition apPOL 180' 10 (DRC-2, concentration 10): 22%; % inhibition apPOL 180' 20 (DRC-2, concentration 20): 43%; % inhibition apPOL 180' 40 (DRC-2, concentration 40): 49%; % inhibition apPOL 180' 80 (DRC-2, concentration 80): 55%

For `Cn1nc(-c2nc(-c3ccccc3)no2)c2c1CCN(C(=O)Cc1cccs1)C2` [Molecule 58, O=C(N1CCc2c(C1)c(nn2C)c1onc(n1)c1ccccc1)Cc1cccs1], which “DNA Pol” value [1] is on record?
The value was 38.

What about the “DNA Pol” value ('DNA Pol' (screen value)) of the same compound?
Its value is 38.

And the “% inhibition Apo pol 10' 2.5” value (DRC-1, concentration 2.5)?
The value was 10%.

And the “% inhibition Apo pol 10' 5” value (DRC-1, concentration 5)?
Its value is 10%.

What about the “% inhibition Apo pol 10' 10” value (DRC-1, concentration 10) of the same compound?
Its value is 35%.

What about the “% inhibition Apo pol 10' 20” value (DRC-1, concentration 20) of the same compound?
Its value is 48%.

What about the “% inhibition Apo pol 10' 40” value (DRC-1, concentration 40) of the same compound?
Its value is 65%.

What about the “% inhibition Apo pol 10' 80” value (DRC-1, concentration 80) of the same compound?
The value was 65%.

What about the “% inhibition Apol 90' 2.5” value (DRC-1, concentration 2.5) of the same compound?
Its value is -0.451%.

What about the “% inhibition Apol 90' 5” value (DRC-1, concentration 5) of the same compound?
Its value is 2.41%.

What about the “% inhibition Apol 90' 10” value (DRC-1, concentration 10) of the same compound?
The value was 21%.

And the “% inhibition Apol 90' 20” value (DRC-1, concentration 20)?
The value was 37%.

What about the “% inhibition Apol 90' 40” value (DRC-1, concentration 40) of the same compound?
Its value is 58%.

What about the “% inhibition Apol 90' 80” value (DRC-1, concentration 80) of the same compound?
Its value is 67%.

What about the “% inhibition apPOL 180' 2.5” value (DRC-1, concentration 2.5) of the same compound?
Its value is -6%.

What about the “% inhibition apPOL 180' 5” value (DRC-1, concentration 5) of the same compound?
Its value is -3.68%.

What about the “% inhibition apPOL 180' 10” value (DRC-1, concentration 10) of the same compound?
The value was 9%.

What about the “% inhibition apPOL 180' 20” value (DRC-1, concentration 20) of the same compound?
The value was 21%.

What about the “% inhibition apPOL 180' 40” value (DRC-1, concentration 40) of the same compound?
The value was 45%.

What about the “% inhibition apPOL 180' 80” value (DRC-1, concentration 80) of the same compound?
Its value is 62%.

What about the “% inhibition Apo pol 5'” value (DRC-2, concentration 5) of the same compound?
The value was 10%.

And the “% inhibition Apol 40'” value (DRC-2, 40', concentration 2.5)?
The value was 9%.

And the “% inhibition ApPOL 90'” value (DRC-2, 90', concentration 40)?
The value was 54%.

And the “% inhibition ApPOL 90'” value (DRC-2, 90', concentration 80)?
The value was 54%.

What about the “% inhibition Apo pol 5' 2.5” value (DRC-2, concentration 2.5) of the same compound?
Its value is 7.55%.

What about the “% inhibition Apo pol 5' 5” value (DRC-2, concentration 5) of the same compound?
The value was 10%.

And the “% inhibition Apo pol 5' 10” value (DRC-2, concentration 10)?
Its value is 18%.

And the “% inhibition Apo pol 5' 20” value (DRC-2, concentration 20)?
Its value is 27%.

What about the “% inhibition Apo pol 5' 40” value (DRC-2, concentration 40) of the same compound?
Its value is 28%.

What about the “% inhibition Apo pol 5' 80” value (DRC-2, concentration 80) of the same compound?
The value was 16%.

What about the “% inhibition Apol 40' 2.5” value (DRC-2, concentration 2.5) of the same compound?
Its value is 9%.

And the “% inhibition Apol 40' 5” value (DRC-2, concentration 5)?
The value was 13%.

And the “% inhibition Apol 40' 10” value (DRC-2, concentration 10)?
Its value is 24%.

What about the “% inhibition Apol 40' 20” value (DRC-2, concentration 20) of the same compound?
The value was 39%.

What about the “% inhibition Apol 40' 40” value (DRC-2, concentration 40) of the same compound?
The value was 51%.

What about the “% inhibition Apol 40' 80” value (DRC-2, concentration 80) of the same compound?
The value was 47%.

What about the “% inhibition ApPOL 90' 2.5” value (DRC-2, concentration 2.5) of the same compound?
Its value is 7.37%.

What about the “% inhibition ApPOL 90' 5” value (DRC-2, concentration 5) of the same compound?
The value was 11%.

What about the “% inhibition ApPOL 90' 10” value (DRC-2, concentration 10) of the same compound?
Its value is 23%.

What about the “% inhibition ApPOL 90' 20” value (DRC-2, concentration 20) of the same compound?
The value was 40%.

And the “% inhibition ApPOL 90' 40” value (DRC-2, concentration 40)?
Its value is 54%.

And the “% inhibition ApPOL 90' 80” value (DRC-2, concentration 80)?
Its value is 54%.

What about the “% inhibition apPOL 180' 2.5” value (DRC-2, concentration 2.5) of the same compound?
The value was 3.22%.

What about the “% inhibition apPOL 180' 5” value (DRC-2, concentration 5) of the same compound?
The value was 6%.

And the “% inhibition apPOL 180' 10” value (DRC-2, concentration 10)?
Its value is 15%.

And the “% inhibition apPOL 180' 20” value (DRC-2, concentration 20)?
The value was 31%.

What about the “% inhibition apPOL 180' 40” value (DRC-2, concentration 40) of the same compound?
The value was 52%.

What about the “% inhibition apPOL 180' 80” value (DRC-2, concentration 80) of the same compound?
The value was 56%.

And the “% inhibition Apo pol 10'” value (first dose-response, concentration 2.5)?
Its value is 10%.

And the “% inhibition Apo pol 10'” value (first dose-response, concentration 5)?
Its value is 10%.

What about the “% inhibition Apo pol 10'” value (first dose-response, concentration 40) of the same compound?
Its value is 65%.

What about the “% inhibition Apo pol 10'” value (first dose-response, concentration 80) of the same compound?
Its value is 65%.

And the “% inhibition Apol 90'” value (first dose-response, 90', concentration 10)?
Its value is 21%.

What about the “% inhibition apPOL 180'” value (first dose-response, concentration 10) of the same compound?
The value was 9%.

And the “% inhibition apPOL 180'” value (first dose-response, concentration 20)?
The value was 21%.
